# Test system: 699152-130-R-J1-PDC complex spheroid growth
# Test: Anticancer human tumor 699152-130-R-J1-PDC patient-derived pancreatic carcinoma cell line growth inhibition [AhR]
# Details: for IC50: curve of first compound; for viability, T/C: stronger effect = lower value
# Procedure, shortened: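 Agents were dosed in half-log steps down from roughly clinical Cmax, or from 10 microM where Cmax was unknown, alone and with AhR antagonists. Read-out: percent test/control growth of tumor spheroids containing HUVEC and MSC stromal cells.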
# [1] = second compound 0.1 µM, first compound 0.000949 µM
# [2] = second compound 0.1 µM, first compound 0.003 µM
# [3] = second compound 0.1 µM, first compound 0.00949 µM
# [4] = second compound 0.1 µM, first compound 0.03 µM
# [5] = second compound 0.1 µM, first compound 0.0949 µM
# [6] = second compound 0.1 µM, first compound 0.3 µM
# [7] = second compound 0.316 µM, first compound 0.000949 µM
# [8] = second compound 0.316 µM, first compound 0.003 µM
# [9] = second compound 0.316 µM, first compound 0.00949 µM
# [10] = second compound 0.316 µM, first compound 0.03 µM
# [11] = second compound 0.316 µM, first compound 0.0949 µM
# [12] = second compound 0.316 µM, first compound 0.3 µM
# [13] = second compound 1 µM, first compound 0.000949 µM
# [14] = second compound 1 µM, first compound 0.003 µM
# [15] = second compound 1 µM, first compound 0.00949 µM
# [16] = second compound 1 µM, first compound 0.03 µM
# [17] = second compound 1 µM, first compound 0.0949 µM
# [18] = second compound 1 µM, first compound 0.3 µM
# [19] = second compound 3.16 µM, first compound 0.000949 µM
# [20] = second compound 3.16 µM, first compound 0.003 µM
# [21] = second compound 3.16 µM, first compound 0.00949 µM
# [22] = second compound 3.16 µM, first compound 0.03 µM
# [23] = second compound 3.16 µM, first compound 0.0949 µM
# [24] = second compound 3.16 µM, first compound 0.3 µM
# [25] = second compound 10 µM, first compound 0.000949 µM
# [26] = second compound 10 µM, first compound 0.003 µM
# [27] = second compound 10 µM, first compound 0.00949 µM
# [28] = second compound 10 µM, first compound 0.03 µM
# [29] = second compound 10 µM, first compound 0.0949 µM
# [30] = second compound 10 µM, first compound 0.3 µM
# 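Further: compound exposure lasted 7 days after spheroids had grown for 3 days.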
smiles,measurement,setting,value
CC(C)CC(NC(=O)C(Cc1ccccc1)NC(=O)c1cnccn1)B(O)O (stereo not given) + Cc1ccccc1N=Nc1ccc(NC(=O)c2ccnn2C)c(C)c1,IC50,second compound 0.1 µM,15.4 nM
same,IC50,second compound 0.316 µM,15.5 nM
same,IC50,second compound 1 µM,15.4 nM
same,IC50,second compound 3.16 µM,15.1 nM
same,IC50,second compound 10 µM,17.1 nM
same,"viability, T/C",[1],86%
same,"viability, T/C",[2],93%
same,"viability, T/C",[3],85.9%
same,"viability, T/C",[4],1.03%
same,"viability, T/C",[5],0.47%
same,"viability, T/C",[6],0.58%
same,"viability, T/C",[7],86%
same,"viability, T/C",[8],105%
same,"viability, T/C",[9],86.9%
same,"viability, T/C",[10],0.65%
same,"viability, T/C",[11],0.35%
same,"viability, T/C",[12],0.4%
same,"viability, T/C",[13],97.9%
same,"viability, T/C",[14],96.8%
same,"viability, T/C",[15],85.3%
same,"viability, T/C",[16],0.79%
same,"viability, T/C",[17],0.52%
same,"viability, T/C",[18],0.56%
same,"viability, T/C",[19],86.4%
same,"viability, T/C",[20],90.7%
same,"viability, T/C",[21],82.9%
same,"viability, T/C",[22],1.35%
same,"viability, T/C",[23],0.62%
same,"viability, T/C",[24],0.61%
same,"viability, T/C",[25],120%
same,"viability, T/C",[26],116%
same,"viability, T/C",[27],98.9%
same,"viability, T/C",[28],2.93%
same,"viability, T/C",[29],0.98%
same,"viability, T/C",[30],0.8%
CCc1c2c(nc3ccc(O)cc13)-c1cc3c(c(=O)n1C2)COC(=O)[C@]3(O)CC + Cc1ccccc1N=Nc1ccc(NC(=O)c2ccnn2C)c(C)c1,IC50,second compound 0.1 µM,12.8 nM
same,IC50,second compound 0.316 µM,15 nM
same,IC50,second compound 1 µM,12.3 nM
same,IC50,second compound 3.16 µM,22.3 nM
same,IC50,second compound 10 µM,44.4 nM
same,"viability, T/C",[1],87.4%
same,"viability, T/C",[2],86.4%
same,"viability, T/C",[3],52.5%
same,"viability, T/C",[4],46.3%
same,"viability, T/C",[5],46.9%
same,"viability, T/C",[6],34.1%
same,"viability, T/C",[7],103%
same,"viability, T/C",[8],80%
same,"viability, T/C",[9],52.2%
same,"viability, T/C",[10],47.1%
same,"viability, T/C",[11],41.8%
same,"viability, T/C",[12],38.9%
same,"viability, T/C",[13],85%
same,"viability, T/C",[14],78.2%
same,"viability, T/C",[15],50.8%
same,"viability, T/C",[16],45%
same,"viability, T/C",[17],39.6%
same,"viability, T/C",[18],34.2%
same,"viability, T/C",[19],95.7%
same,"viability, T/C",[20],82%
same,"viability, T/C",[21],57.2%
same,"viability, T/C",[22],45.6%
same,"viability, T/C",[23],42.8%
same,"viability, T/C",[24],29.7%
same,"viability, T/C",[25],115%
same,"viability, T/C",[26],87.5%
same,"viability, T/C",[27],60.5%
same,"viability, T/C",[28],51.2%
same,"viability, T/C",[29],49.9%
same,"viability, T/C",[30],39.4%
COc1cc(Nc2ncc3c(n2)-c2ccc(Cl)cc2C(c2c(F)cccc2OC)=NC3)ccc1C(=O)O + Cc1ccccc1N=Nc1ccc(NC(=O)c2ccnn2C)c(C)c1,IC50,second compound 0.1 µM,> 10000 nM
same,IC50,second compound 0.316 µM,6410 nM
same,IC50,second compound 1 µM,> 10000 nM
same,IC50,second compound 3.16 µM,> 10000 nM
same,IC50,second compound 10 µM,> 10000 nM
same,"viability, T/C","second compound 0.1 µM, first compound 0.0316 µM",89.9%
same,"viability, T/C","second compound 0.1 µM, first compound 0.1 µM",80.2%
same,"viability, T/C","second compound 0.1 µM, first compound 0.316 µM",65.3%
same,"viability, T/C","second compound 0.1 µM, first compound 1 µM",54.5%
same,"viability, T/C","second compound 0.1 µM, first compound 3.16 µM",54.4%
same,"viability, T/C","second compound 0.1 µM, first compound 10 µM",56.6%
same,"viability, T/C","second compound 0.316 µM, first compound 0.0316 µM",83.1%
same,"viability, T/C","second compound 0.316 µM, first compound 0.1 µM",68.7%
same,"viability, T/C","second compound 0.316 µM, first compound 0.316 µM",65.5%
same,"viability, T/C","second compound 0.316 µM, first compound 1 µM",59.5%
same,"viability, T/C","second compound 0.316 µM, first compound 3.16 µM",51.7%
same,"viability, T/C","second compound 0.316 µM, first compound 10 µM",48.4%
same,"viability, T/C","second compound 1 µM, first compound 0.0316 µM",86.8%
same,"viability, T/C","second compound 1 µM, first compound 0.1 µM",71.7%
same,"viability, T/C","second compound 1 µM, first compound 0.316 µM",74.3%
same,"viability, T/C","second compound 1 µM, first compound 1 µM",60.5%
same,"viability, T/C","second compound 1 µM, first compound 3.16 µM",56.9%
same,"viability, T/C","second compound 1 µM, first compound 10 µM",51.7%
same,"viability, T/C","second compound 3.16 µM, first compound 0.0316 µM",86.3%
same,"viability, T/C","second compound 3.16 µM, first compound 0.1 µM",82.6%
same,"viability, T/C","second compound 3.16 µM, first compound 0.316 µM",68.9%
same,"viability, T/C","second compound 3.16 µM, first compound 1 µM",61.1%
same,"viability, T/C","second compound 3.16 µM, first compound 3.16 µM",54.2%
same,"viability, T/C","second compound 3.16 µM, first compound 10 µM",50.1%
same,"viability, T/C","second compound 10 µM, first compound 0.0316 µM",91.7%
same,"viability, T/C","second compound 10 µM, first compound 0.1 µM",94.7%
same,"viability, T/C","second compound 10 µM, first compound 0.316 µM",74.8%
same,"viability, T/C","second compound 10 µM, first compound 1 µM",64.8%
same,"viability, T/C","second compound 10 µM, first compound 3.16 µM",66.8%
same,"viability, T/C","second compound 10 µM, first compound 10 µM",63.6%

# Source: PubChem BioAssay AID1919001 (Molecular Pharmacology Branch, DTP, NCI, 2023)
